Test results from patent US4005100A, “Pyrazole-5-carboxamides” (Hoffmann-La Roche Inc., priority 1972, dated 1977).
Where “and” joins values, the source holds several entries; their conditions need not be identical. Identical values can stand only once.

Tests used:
[1] = tested on: streptozotocin-diabetic rats; experiment: glucose level (in % of controls) upon oral administration to streptozotocin-diabetic rats; format: in vivo, rat (Female Albino-rats)
Experimental: (§1) A compound encompassed by the formula I, namely, 3-methyl-N-(5-methyl-3,3-diphenyl-pyrrolin-2-yl)pyrazole-5-carboxamide, upon oral administration to maximal streptozotocin-diabetic rats gave the following values for the glucose and fatty acid levels (in % of controls):
(§2) The test procedure was that described by E. LORCH in Diabetologia 7, 195-203 (1971).
(§3) Female (140-160 gr) Albino-rats were starved (24 hrs) and refed (16 hrs) one week after Streptozotocin administration (60 mg/kg s.c.). Mean plasma glucose values: 500-600 mg/100 ml plasma. Diabetic starved-refed control animals received the suspension vehicle alone.

[2] = DL50 in the rat, single oral application; settings: in vivo, observation period 10 days
Description: The DL50 in the rat amounts to 8 g/kg (single oral application: observation period 10 days).

[3] = tested on: streptozotocin-diabetic rats; experiment: free fatty acid level (in % of controls) upon oral administration to streptozotocin-diabetic rats; format: in vivo, rat (Female Albino-rats)
Experimental: as §1, §2, §3

[4] = 100 μmol/kg oral, 4 hours after application
[5] = 300 μmol/kg oral, 2 hours after application
[6] = 300 μmol/kg oral, 6 hours after application
[7] = 1000 μmol/kg oral, 4 hours after application

SMILES: Cc1cc(C(=O)NC2=NC(C)CC2(c2ccccc2)c2ccccc2)[nH]n1 (stereo not drawn) [3-methyl-N-(5-methyl-3,3-diphenyl-1-pyrrolin-2-yl)-pyrazole-5-carboxamide]
- Glucose ([1]; 100 μmol/kg oral, 2 hours after application): 70 % of controls
- Glucose [1, 4]: 80 % of controls and 96 % of controls and 50 % of controls
- Glucose ([1]; 100 μmol/kg oral, 6 hours after application): 60 % of controls
- Glucose [1, 5]: 76 % of controls and 70 % of controls
- Glucose [1, 6]: 71 % of controls and 59 % of controls
- Glucose [1, 7]: 89 % of controls and 80 % of controls
- LD50 at 240 h [2]: 8000 mg/kg
- Free fatty acids [3, 4]: 56 % of controls
- Free fatty acids [3, 5]: 59 % of controls
- Free fatty acids ([3]; 300 μmol/kg oral, 4 hours after application): 72 % of controls and 62 % of controls
- Free fatty acids [3, 6]: 50 % of controls
- Free fatty acids [3, 7]: 57 % of controls
